# Key:
# [1] = cited from earlier work
# [2] = Solubility of difluprednate with different surfactants/solubilizers; type: physicochemical
# Procedure: To improve the solubility of difluprednate, different surfactants/solubilizers were investigated to discover suitable solubilizers. Different surfactants/solubilizers such as Poloxamer 188, Poloxamer 407, polysorbate 80, PEG 40 Caster Oil, PEG 60 Caster Oil, PEG 40 Hydrogenated Castor Oil, Polyoxyl 40 Stearate and Soluplus was dissolved in water with different concentrations. Difluprednate was added into the surfactant solutions with the final difluprednate concentration of 0.05%. The solubility of difluprednate was measured. […] Soluplus is a polyethylene glycol, polyvinyl acetate and polyvinylcaprolactame-based graft copolymer (PVAc-PVCap-PEG). It can form nanomicelles in water or other aqueous solutions, and solubilize poorly soluble difluprednate.
smiles,measurement,setting,value
CCCC(=O)O[C@]1(C(=O)COC(C)=O)CC[C@H]2[C@@H]3C[C@H](F)C4=CC(=O)C=C[C@]4(C)[C@@]3(F)[C@@H](O)C[C@@]21C [Difluprednate],solubility in water,[1],practically insoluble in water
same,solubility of difluprednate,[2]; 5% Polyoxyethylene Castor Oil (RL-40),> 98%
same,Solubility %,"[2]; Benzyl Benzoate 2% in water, difluprednate 0.05%",0.37%
same,Solubility %,"[2]; Glyceryl Tricaprylate 0.2% in water, difluprednate 0.05%",0.84%
same,Solubility %,"[2]; Hypromellose 0.5% in water, difluprednate 0.05%",17.6%
same,Solubility %,"[2]; Poloxamer188 0.1% in water, difluprednate 0.05%",3.59%
same,Solubility %,"[2]; Poloxamer 407 0.2% in water, difluprednate 0.05%",2.20%
same,Solubility %,"[2]; Polyoxyethylene (23) Cetyl Ether 0.2% in water, difluprednate 0.05%",7.87%
same,Solubility %,"[2]; Polyoxyethylene (23) Cetyl Ether 0.45% in water, difluprednate 0.05%",15.41%
same,Solubility %,"[2]; Polyoxyethylene (23) Cetyl Ether 1.0% in water, difluprednate 0.05%",33.70%
same,Solubility %,"[2]; Polyoxyethylene (40) Monostearate 0.5% in water, difluprednate 0.05%",42.0%
same,Solubility %,"[2]; Polyoxyethylene (40) Stearate 7.0% in water, difluprednate 0.05%",5.1%
same,Solubility %,"[2]; Polyoxyethylene (60) Castor Oil 5.0% in water, difluprednate 0.05%",95.3%
same,solubility of difluprednate,"[2]; Polyoxyethylene (60) Castor Oil, at least 4 or 5% needed",> 95%
same,Solubility %,"[2]; Polyoxyethylene Castor Oil (EL) 5.0% in water, difluprednate 0.05%",93.5%
same,Solubility %,"[2]; Polyoxyethylene Castor Oil (EL-35) 5.0% in water, difluprednate 0.05% (second entry, r27)",96.3%
same,solubility of difluprednate,"[2]; Polyoxyethylene Castor Oil (EL-35), at least 4 or 5% needed",> 95%
same,Solubility %,"[2]; Polyoxyethylene Castor Oil (EL-40) 5.0% in water, difluprednate 0.05%",>98.0%
same,Solubility %,"[2]; Polyoxyethylene Hydrogenated Castor Oil (RH-40) 0.53% in water, difluprednate 0.05%",9.7%
same,Solubility %,"[2]; Polyoxyethylene Hydrogenated Castor Oil (RH-40) 1.0% in water, difluprednate 0.05%",18.6%
same,Solubility %,"[2]; Polyoxyethylene Hydrogenated Castor Oil (RH-40) 2.0% in water, difluprednate 0.05%",50.0%
same,Solubility %,"[2]; Polyoxyethylene Hydrogenated Castor Oil (RH-40) 3.0% in water, difluprednate 0.05%",73.1%
same,Solubility %,"[2]; Polyoxyethylene Hydrogenated Castor Oil (RH-40) 4.0% in water, difluprednate 0.05%",88.1%
same,Solubility %,"[2]; Polyoxyethylene Hydrogenated Castor Oil (RH-40) 5.0% in water, difluprednate 0.05%",99.5%
same,Solubility %,"[2]; Polyoxyethylene castor oil (EL-35) 5.0% in water, difluprednate 0.05% (first entry, r11)",82.9%
same,Solubility %,"[2]; Polyoxyl 20 Cetostearyl Ether 1.0% in water, difluprednate 0.05%",37.2%
same,Solubility %,"[2]; Polyoxyl 20 Cetostearyl Ether 2.0% in water, difluprednate 0.05%",74.7%
same,Solubility %,"[2]; Polyoxyl 20 Cetostearyl Ether 3.0% in water, difluprednate 0.05%",79.9%
same,Solubility %,"[2]; Polyoxyl 20 Cetostearyl Ether 4.0% in water, difluprednate 0.05%",96.9%
same,Solubility %,"[2]; Polyoxyl 20 Cetostearyl Ether 5.0% in water, difluprednate 0.05%",96.9%
same,Solubility %,"[2]; Polysorbate 80 0.05% in water, difluprednate 0.05%",1.75%
same,Solubility %,"[2]; Soluplus 0.9% in water, difluprednate 0.05%",101.9%
same,Solubility %,"[2]; Soluplus 1.2% in water, difluprednate 0.05%",102.1%
same,Solubility %,"[2]; Soluplus 1.5% in water, difluprednate 0.05%",102.1%
same,Solubility %,"[2]; Sucrose Fatty Acid Ester 0.2% in water, difluprednate 0.05%",2.01%
same,Solubility %,"[2]; Sucrose Fatty Acid Ester 1.0% in water, difluprednate 0.05%",8.36%
same,Solubility %,"[2]; Vitamin E Polyethylene Glycol Succinate 0.5% in water, difluprednate 0.05%",25.3%

# Source: patent US20230172946A1, “In-situ Gel Forming Ophthalmic Formulations Containing Difluprednate” (IVIEW Therapeutics, Inc., priority 2019, published 2023)
